According to ChEMBL document CHEMBL3045223, “Synthesis, nematicidal and antimicrobial properties of Bis-[4-methoxy-3-[3-(4-fluorophenyl)-6-(4-methylphenyl)-2(aryl)-tetrahydro-2H-pyrazolo[3,4-d]thiazol-5-yl]phenyl]methanes” (2009):
In brackets after ≈: the same amount, converted by molar mass.

Legend:
Assay type in all cases: functional
[1] = test system: Lysinibacillus sphaericus; test: Antibacterial activity against Lysinibacillus sphaericus MTCC 11 assessed as growth arrest at 37 degC for 24 hr; conditions: MTCC 11, 24 h
Pseudomonas aeruginosa [2] = test: Antibacterial activity against Pseudomonas aeruginosa MTCC 741 assessed as inhibition zones at 100 ug/disk at 37 degC for 24 hr; conditions: MTCC 741, 24 h, read-out: IZ
Klebsiella aerogenes [3] = test: Antibacterial activity against Enterobacter aerogenes MTCC 39 assessed as growth arrest at 37 degC for 24 hr; conditions: MTCC 39, 24 h
Pseudomonas aeruginosa [4] = test: Antibacterial activity against Pseudomonas aeruginosa MTCC 741 assessed as growth arrest at 37 degC for 24 hr; conditions: MTCC 741, 24 h
Staphylococcus aureus [5] = test: Antibacterial activity against Staphylococcus aureus MTCC 96 assessed as growth arrest at 37 degC for 24 hr; conditions: MTCC 96, 24 h
Staphylococcus aureus [6] = test: Antibacterial activity against Staphylococcus aureus MTCC 96 assessed as inhibition zones at 100 ug/disc at 37 degC for 24 hr; conditions: MTCC 96, 24 h, read-out: IZ
Bacillus subtilis [7] = test: Antibacterial activity against Bacillus subtilis MTCC 441 assessed as growth arrest at 37 degC for 24 hr; conditions: MTCC 441, 24 h
Klebsiella aerogenes [8] = test: Antibacterial activity against Enterobacter aerogenes MTCC 39 assessed as inhibition zones at 100 ug/disk at 37 degC for 24 hr; conditions: MTCC 39, 24 h, read-out: IZ
[9] = test system: Chromobacterium violaceum; test: Antibacterial activity against Chromobacterium violaceum MTCC 2656 assessed as growth arrest at 37 degC for 24 hr; conditions: MTCC 2656, 24 h
[10] = test system: Chromobacterium violaceum; test: Antibacterial activity against Chromobacterium violaceum MTCC 2656 assessed as inhibition zones at 100 ug/disk at 37 degC for 24 hr; conditions: MTCC 2656, 24 h, read-out: IZ
[11] = test system: Lysinibacillus sphaericus; test: Antibacterial activity against Lysinibacillus sphaericus MTCC 11 assessed as inhibition zones at 100 ug/disk at 37 degC for 24 hr; conditions: MTCC 11, 24 h, read-out: IZ
Bacillus subtilis [12] = test: Antibacterial activity against Bacillus subtilis MTCC 441 assessed as inhibition zones at 100 ug/disk at 37 degC for 24 hr; conditions: MTCC 441, 24 h, read-out: IZ
[13] = test system: Trichophyton mentagrophytes; test: Antifungal activity against Trichophyton mentagrophytes IFO 40996 assessed as growth inhibition at 300 ug/disc at 37 degC for 48 hr; conditions: IFO 40996, 48 h, read-out: IZ
Klebsiella aerogenes [14] = test: Antibacterial activity against Enterobacter aerogenes MTCC 39 assessed as inhibition zones at 300 ug/disk at 37 degC for 24 hr; conditions: MTCC 39, 24 h, read-out: IZ
Pseudomonas aeruginosa [15] = test: Antibacterial activity against Pseudomonas aeruginosa MTCC 741 assessed as inhibition zones at 300 ug/disk at 37 degC for 24 hr; conditions: MTCC 741, 24 h, read-out: IZ
Candida albicans [16] = test: Antifungal activity against Candida albicans ATCC 10231 assessed as growth inhibition at 300 ug/disk at 37 degC for 48 hr; conditions: ATCC 10231, 48 h, read-out: IZ
Trichophyton rubrum [17] = test: Antifungal activity against Trichophyton rubrum IFO 9185 assessed as growth inhibition at 37 degC for 48 hr; conditions: IFO 9185, 48 h
[18] = test system: Ditylenchus myceliophagus; test: Nematicidal activity against Ditylenchus myceliophagus assessed as immobility; conditions: read-out: LD50 (the source's name)
[19] = test system: Lysinibacillus sphaericus; test: Antibacterial activity against Lysinibacillus sphaericus MTCC 11 assessed as inhibition zones at 300 ug/disk at 37 degC for 24 hr; conditions: MTCC 11, 24 h, read-out: IZ
Aspergillus fumigatus [20] = test: Antifungal activity against Aspergillus fumigatus HIC 6094 assessed as growth inhibition at 37 degC for 48 hr; conditions: HIC 6094, 48 h
[21] = test system: Chromobacterium violaceum; test: Antibacterial activity against Chromobacterium violaceum MTCC 2656 assessed as inhibition zones at 300 ug/disk at 37 degC for 24 hr; conditions: MTCC 2656, 24 h, read-out: IZ
Candida albicans [22] = test: Antifungal activity against Candida albicans ATCC 10231 assessed as growth inhibition at 37 degC for 48 hr; conditions: ATCC 10231, 48 h
[23] = test system: Trichophyton mentagrophytes; test: Antifungal activity against Trichophyton mentagrophytes IFO 40996 assessed as growth inhibition at 37 degC for 48 hr; conditions: IFO 40996, 48 h
Trichophyton rubrum [24] = test: Antifungal activity against Trichophyton rubrum IFO 9185 assessed as growth inhibition at 300 ug/disk at 37 degC for 48 hr; conditions: IFO 9185, 48 h, read-out: IZ
Aspergillus fumigatus [25] = test: Antifungal activity against Aspergillus fumigatus HIC 6094 assessed as growth inhibition at 300 ug/disc at 37 degC for 48 hr; conditions: HIC 6094, 48 h, read-out: IZ
Bacillus subtilis [26] = test: Antibacterial activity against Bacillus subtilis MTCC 441 assessed as inhibition zones at 300 ug/disk at 37 degC for 24 hr; conditions: MTCC 441, 24 h, read-out: IZ
Caenorhabditis elegans = test: Nematicidal activity against Caenorhabditis elegans assessed as immobility; conditions: read-out: LD50 (the source's name)
Staphylococcus aureus [27] = test: Antibacterial activity against Staphylococcus aureus MTCC 96 assessed as inhibition zones at 300 ug/disc at 37 degC for 24 hr; conditions: MTCC 96, 24 h, read-out: IZ

Row | SMILES | MBC [1] | MIC [1] | MBC (Klebsiella aerogenes [3]) | MIC (Klebsiella aerogenes [3]) | MBC (Pseudomonas aeruginosa [4]) | MIC (Pseudomonas aeruginosa [4]) | MBC (Staphylococcus aureus [5]) | MIC (Staphylococcus aureus [5]) | MBC (Bacillus subtilis [7]) | MIC (Bacillus subtilis [7]) | MBC [9] | MIC [9] | zone of inhibition at 300 µg/disc [13] | zone of inhibition at 300 µg/disc (Klebsiella aerogenes [14]) | zone of inhibition at 300 µg/disc (Pseudomonas aeruginosa [15]) | zone of inhibition at 300 µg/disc (Candida albicans [16]) | MBC (Trichophyton rubrum [17]) | MIC (Trichophyton rubrum [17]) | LC50 [18] | zone of inhibition at 300 µg/disc [19] | further results
1 | CC1(C)S[C@@H]2[C@H](NC(=O)Cc3ccccc3)C(=O)N2[C@H]1C(=O)O [PENICILLIN G] | 25 µg/mL (≈ 74.8 µM) | 3.12 µg/mL (≈ 9.33 µM) | 12.5 µg/mL (≈ 37.4 µM) | 6.25 µg/mL (≈ 18.7 µM) | 12.5 µg/mL (≈ 37.4 µM) | 6.25 µg/mL (≈ 18.7 µM) | 6.25 µg/mL (≈ 18.7 µM) | 1.56 µg/mL (≈ 4.67 µM) | 6.25 µg/mL (≈ 18.7 µM) | 1.56 µg/mL (≈ 4.67 µM) | 12.5 µg/mL (≈ 37.4 µM) | 12.5 µg/mL (≈ 37.4 µM) | – | – | – | – | – | – | – | – | zone of inhibition at 100 µg/disc (Pseudomonas aeruginosa [2]): 25 mm; zone of inhibition at 100 µg/disc (Staphylococcus aureus [6]): 40 mm; zone of inhibition at 100 µg/disc (Klebsiella aerogenes [8]): 30 mm; zone of inhibition at 100 µg/disc [10]: 25 mm; zone of inhibition at 100 µg/disc [11]: 28 mm; zone of inhibition at 100 µg/disc (Bacillus subtilis [12]): 25 mm
2 | COc1ccc(N2N=C3C(SC(c4cc(Cc5ccc(OC)c(C6SC7C(=NN(c8ccc(OC)cc8)C7c7ccc(F)cc7)N6c6ccc(C)cc6)c5)ccc4OC)N3c3ccc(C)cc3)C2c2ccc(F)cc2)cc1 (configuration not stated) | 50 µg/mL (≈ 47 µM) | 50 µg/mL (≈ 47 µM) | 25 µg/mL (≈ 23.5 µM) | 25 µg/mL (≈ 23.5 µM) | 25 µg/mL (≈ 23.5 µM) | 12.5 µg/mL (≈ 11.8 µM) | 25 µg/mL (≈ 23.5 µM) | 25 µg/mL (≈ 23.5 µM) | 25 µg/mL (≈ 23.5 µM) | 25 µg/mL (≈ 23.5 µM) | 12.5 µg/mL (≈ 11.8 µM) | 6.25 µg/mL (≈ 5.88 µM) | 12 mm | 20 mm | 18 mm | 9 mm | 12.5 µg/mL (≈ 11.8 µM) | 12.5 µg/mL (≈ 11.8 µM) | 950 µg/mL (≈ 893 µM) | 15 mm | MBC (Aspergillus fumigatus [20]): 50 µg/mL (≈ 47 µM); MIC (Aspergillus fumigatus [20]): 25 µg/mL (≈ 23.5 µM); zone of inhibition at 300 µg/disc [21]: 17 mm; MBC (Candida albicans [22]): 25 µg/mL (≈ 23.5 µM); MIC (Candida albicans [22]): 25 µg/mL (≈ 23.5 µM); MBC [23]: 25 µg/mL (≈ 23.5 µM); MIC [23]: 12.5 µg/mL (≈ 11.8 µM); zone of inhibition at 300 µg/disc (Trichophyton rubrum [24]): 13 mm; zone of inhibition at 300 µg/disc (Aspergillus fumigatus [25]): 15 mm; zone of inhibition at 300 µg/disc (Bacillus subtilis [26]): 15 mm; LC50 (Caenorhabditis elegans): 870 µg/mL (≈ 818 µM); zone of inhibition at 300 µg/disc (Staphylococcus aureus [27]): 26 mm
3 | COc1ccc(Cc2ccc(OC)c(C3SC4C(=NN(Cc5ccccc5)C4c4ccc(F)cc4)N3c3ccc(Cl)cc3)c2)cc1C1SC2C(=NN(Cc3ccccc3)C2c2ccc(F)cc2)N1c1ccc(Cl)cc1 (configuration not stated) | 50 µg/mL (≈ 46.6 µM) | 6.25 µg/mL (≈ 5.83 µM) | 12.5 µg/mL (≈ 11.7 µM) | 6.25 µg/mL (≈ 5.83 µM) | 50 µg/mL (≈ 46.6 µM) | 12.5 µg/mL (≈ 11.7 µM) | 25 µg/mL (≈ 23.3 µM) | 6.25 µg/mL (≈ 5.83 µM) | 12.5 µg/mL (≈ 11.7 µM) | 6.25 µg/mL (≈ 5.83 µM) | 6.25 µg/mL (≈ 5.83 µM) | 6.25 µg/mL (≈ 5.83 µM) | 16 mm | 23 mm | 18 mm | 21 mm | 12.5 µg/mL (≈ 11.7 µM) | 6.25 µg/mL (≈ 5.83 µM) | 180 µg/mL (≈ 168 µM) | 23 mm | MBC (Aspergillus fumigatus [20]): 12.5 µg/mL (≈ 11.7 µM); MIC (Aspergillus fumigatus [20]): 6.25 µg/mL (≈ 5.83 µM); zone of inhibition at 300 µg/disc [21]: 18 mm; MBC (Candida albicans [22]): 6.25 µg/mL (≈ 5.83 µM); MIC (Candida albicans [22]): 3.12 µg/mL (≈ 2.91 µM); MBC [23]: 25 µg/mL (≈ 23.3 µM); MIC [23]: 12.5 µg/mL (≈ 11.7 µM); zone of inhibition at 300 µg/disc (Trichophyton rubrum [24]): 14 mm; zone of inhibition at 300 µg/disc (Aspergillus fumigatus [25]): 17 mm; zone of inhibition at 300 µg/disc (Bacillus subtilis [26]): 23 mm; LC50 (Caenorhabditis elegans): 200 µg/mL (≈ 187 µM); zone of inhibition at 300 µg/disc (Staphylococcus aureus [27]): 30 mm
